Experimental data published in US20250025473A1 (priority 2021, published 2025).
Where two headings read alike, the source gives them in different places.

How the values were obtained:
HaCat cells [1] = experiment: Apoptosis assays (activated caspases, SYTOX Green, cleaved PARP-1/caspase 8)
MDCK-MDR1 cells = conditions: 5 μM
PKA = PKA (Homo sapiens, UniProt P17612); experiment: HotSpot in vitro kinase assay, PKA
HSV-1 K26GFP = experiment: HSV capsid entry, GFP+ cells by confocal imaging; conditions: HaCat, CIMSS 10 μM, anti-Akt 2 μg/ml, cycloheximide 10 μg/ml
panel of 393 kinases [2] = molecular target: T1, panel of 393 kinases (Homo sapiens, UniProt Q9P2K8); experiment: biochemical; conditions: CIMSS 10 μM, 10 μM ATP
T1 construct: purchased Reaction Biology Corporation

panel of 393 kinases [3] = molecular target: T2, panel of 393 kinases (Homo sapiens, UniProt P54646); experiment: biochemical; conditions: CIMSS 10 μM, 10 μM ATP
T2 construct: purchased Reaction Biology Corporation

panel of 393 kinases [4] = molecular target: T3, panel of 393 kinases (Homo sapiens, UniProt P78527); experiment: biochemical; conditions: CIMSS 10 μM, 10 μM ATP
T3 construct: purchased Reaction Biology Corporation

panel of 393 kinases [5] = molecular target: T4, panel of 393 kinases (Homo sapiens, UniProt Q15119); experiment: biochemical; conditions: CIMSS 10 μM, 10 μM ATP
T4 construct: purchased Reaction Biology Corporation

panel of 393 kinases [6] = molecular target: T5, panel of 393 kinases (Homo sapiens, UniProt Q9BQI3); experiment: biochemical; conditions: CIMSS 10 μM, 10 μM ATP
T5 construct: purchased Reaction Biology Corporation

panel of 393 kinases [7] = molecular target: T6, panel of 393 kinases (Homo sapiens, UniProt Q96QT4); experiment: biochemical; conditions: CIMSS 10 μM, 10 μM ATP
T6 construct: purchased Reaction Biology Corporation

panel of 393 kinases [8] = molecular target: T7, panel of 393 kinases (Homo sapiens, UniProt Q15120); experiment: biochemical; conditions: CIMSS 10 μM, 10 μM ATP
T7 construct: purchased Reaction Biology Corporation

HaCat cells [9] = experiment: Cytotoxicity/viability, confluent HaCat cells; format: cell-based, human; conditions: 10 μM, fully confluent HaCat cells, up to 120 h
Procedure: Results are presented as mean±SEM odu as a percentage of the DMSO control (n=2 independent experiments each conducted in duplicate for C and 1 experiment conducted in duplicate for D). Results in B-D were compared by ANOVA, *p<0.05, **p<0.01, ***p<0.001, ****p<0.0001).
Cell proliferation and viability were determined using the Cell Titer 96® Aqueous One Solution and optical density was determined using a SpectraMax® M5e Molecular Devices multidetection microplate reader. […] The cells were then fixed and stained for activated caspases (red) and SYTOX Green (for integrity of plasma membrane) by Image-iT™ LIVE red Poly Caspase Detection kit. Nuclei were stained with Hoechst. Images were acquired by laser confocal microscope ZeissLive/DuoScan equipped with oil immersion objectives 63×1.1 and captured in an optical slice of 0.37 μm with appropriate filters. Alternatively, immunoblots were prepared and probed with antibodies to cleaved PARP-1 or cleaved caspase 8.

intracellular Ca2+ = experiment: Calcium kinetic measurements (Fura-2) after HSV exposure; format: cell-based, human; conditions: 10 μM, HaCat
Procedure: The cells were then washed, lysed and Western blots of cell lysates prepared and probed with a mAb to gD as a marker of cell-bound virus and anti-3-actin as a loading control. […] Representative responses are shown for the first 30 minutes (left) and the mean calcium released over the first 3 minutes and then the extended response in the first hour following viral exposure were calculated from 4 wells in 3 independent experiments, each containing 5×10^4 cells (right). Asterisks indicate statistically significant differences by ANOVA (*, p<0.05, ** p<0.01, *** p<0.001) relative to control cells (mock-infected, DMSO). […] Nuclei were stained blue with DAPI. Images are representative of 2 independent experiments. […] Nuclei are stained blue (DAPI). Images were obtained with ZeissLive/DuoScan (objective 100×1.4, bar=10 μm) are representative of 2 independent experiments; quantification is shown in FIG. 11.
The cells were then transferred to SpectraMax® MF^e temperature-regulated chamber at 37° C. […] An intracellular calibration was performed with each experiment by determining the fluorescence ratio (340:380) in the presence of Ca-free 10 mM K2EGTA buffer (Rmin) and 10 mM CaEGTA buffer containing 10 μM ionomycin (Rmax) (C-3008, Calcium Calibration Buffer Kit #1, Invitrogen Molecular Probes™).

T2 sequence (P54646 whole entry): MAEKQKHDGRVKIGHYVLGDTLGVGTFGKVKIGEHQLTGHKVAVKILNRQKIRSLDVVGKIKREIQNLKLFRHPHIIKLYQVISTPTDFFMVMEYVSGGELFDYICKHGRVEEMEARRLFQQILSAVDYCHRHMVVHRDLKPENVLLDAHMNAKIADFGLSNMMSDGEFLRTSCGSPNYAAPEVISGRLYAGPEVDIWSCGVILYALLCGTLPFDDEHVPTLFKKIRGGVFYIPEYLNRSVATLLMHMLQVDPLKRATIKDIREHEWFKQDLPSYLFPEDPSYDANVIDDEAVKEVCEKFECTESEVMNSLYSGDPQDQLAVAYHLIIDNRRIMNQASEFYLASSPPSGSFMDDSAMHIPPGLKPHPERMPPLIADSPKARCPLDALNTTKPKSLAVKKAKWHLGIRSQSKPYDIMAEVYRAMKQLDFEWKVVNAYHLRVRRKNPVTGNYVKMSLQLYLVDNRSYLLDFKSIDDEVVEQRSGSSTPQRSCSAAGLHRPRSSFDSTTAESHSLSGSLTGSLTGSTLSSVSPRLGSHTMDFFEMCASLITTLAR
T6 sequence (Q96QT4 whole entry): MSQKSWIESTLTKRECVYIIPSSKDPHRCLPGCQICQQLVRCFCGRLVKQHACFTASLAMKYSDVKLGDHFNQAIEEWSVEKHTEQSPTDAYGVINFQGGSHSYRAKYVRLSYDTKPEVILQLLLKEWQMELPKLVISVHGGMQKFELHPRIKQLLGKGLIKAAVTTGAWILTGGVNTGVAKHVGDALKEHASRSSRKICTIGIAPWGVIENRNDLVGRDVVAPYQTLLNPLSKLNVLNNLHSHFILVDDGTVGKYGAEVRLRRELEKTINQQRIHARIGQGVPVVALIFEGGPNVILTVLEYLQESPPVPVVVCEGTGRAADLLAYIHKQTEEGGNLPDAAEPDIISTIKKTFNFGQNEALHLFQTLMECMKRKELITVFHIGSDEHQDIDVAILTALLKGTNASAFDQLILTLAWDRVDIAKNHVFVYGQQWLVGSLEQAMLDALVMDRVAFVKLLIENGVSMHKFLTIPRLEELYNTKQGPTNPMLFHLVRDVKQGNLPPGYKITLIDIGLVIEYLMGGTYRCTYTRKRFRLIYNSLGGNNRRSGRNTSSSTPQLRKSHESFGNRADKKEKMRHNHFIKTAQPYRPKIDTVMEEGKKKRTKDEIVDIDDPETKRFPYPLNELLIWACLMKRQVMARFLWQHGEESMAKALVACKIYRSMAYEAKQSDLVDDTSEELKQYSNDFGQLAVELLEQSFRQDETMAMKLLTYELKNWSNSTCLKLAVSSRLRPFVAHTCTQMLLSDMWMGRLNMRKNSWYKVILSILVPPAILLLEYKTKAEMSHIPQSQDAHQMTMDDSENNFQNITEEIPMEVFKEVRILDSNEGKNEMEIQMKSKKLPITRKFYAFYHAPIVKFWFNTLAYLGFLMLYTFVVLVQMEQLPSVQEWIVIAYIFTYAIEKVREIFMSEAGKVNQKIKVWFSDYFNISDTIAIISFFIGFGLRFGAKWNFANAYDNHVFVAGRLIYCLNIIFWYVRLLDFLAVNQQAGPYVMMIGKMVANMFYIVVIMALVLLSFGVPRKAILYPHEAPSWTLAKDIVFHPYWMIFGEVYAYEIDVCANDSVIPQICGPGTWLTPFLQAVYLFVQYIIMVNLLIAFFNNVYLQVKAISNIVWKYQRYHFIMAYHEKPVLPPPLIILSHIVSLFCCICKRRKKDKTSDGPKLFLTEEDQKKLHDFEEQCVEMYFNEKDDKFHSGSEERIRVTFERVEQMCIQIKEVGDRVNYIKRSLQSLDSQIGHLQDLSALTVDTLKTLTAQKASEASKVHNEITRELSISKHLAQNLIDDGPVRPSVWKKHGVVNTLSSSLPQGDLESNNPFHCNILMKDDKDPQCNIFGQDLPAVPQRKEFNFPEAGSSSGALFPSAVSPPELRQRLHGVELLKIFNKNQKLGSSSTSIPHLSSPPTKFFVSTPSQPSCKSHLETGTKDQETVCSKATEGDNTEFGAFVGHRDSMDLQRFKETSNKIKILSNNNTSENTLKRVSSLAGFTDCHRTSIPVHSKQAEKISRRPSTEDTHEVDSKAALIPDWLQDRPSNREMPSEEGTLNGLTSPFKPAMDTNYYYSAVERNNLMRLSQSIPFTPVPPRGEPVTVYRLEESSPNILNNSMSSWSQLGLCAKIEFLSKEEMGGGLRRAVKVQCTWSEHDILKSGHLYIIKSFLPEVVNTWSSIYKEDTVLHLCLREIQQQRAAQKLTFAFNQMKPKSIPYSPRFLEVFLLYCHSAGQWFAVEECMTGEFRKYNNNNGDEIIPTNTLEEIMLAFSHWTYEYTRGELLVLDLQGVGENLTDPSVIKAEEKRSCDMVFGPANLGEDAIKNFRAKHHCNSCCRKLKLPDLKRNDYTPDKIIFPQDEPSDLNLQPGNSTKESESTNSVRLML
T7 sequence (Q15120 whole entry): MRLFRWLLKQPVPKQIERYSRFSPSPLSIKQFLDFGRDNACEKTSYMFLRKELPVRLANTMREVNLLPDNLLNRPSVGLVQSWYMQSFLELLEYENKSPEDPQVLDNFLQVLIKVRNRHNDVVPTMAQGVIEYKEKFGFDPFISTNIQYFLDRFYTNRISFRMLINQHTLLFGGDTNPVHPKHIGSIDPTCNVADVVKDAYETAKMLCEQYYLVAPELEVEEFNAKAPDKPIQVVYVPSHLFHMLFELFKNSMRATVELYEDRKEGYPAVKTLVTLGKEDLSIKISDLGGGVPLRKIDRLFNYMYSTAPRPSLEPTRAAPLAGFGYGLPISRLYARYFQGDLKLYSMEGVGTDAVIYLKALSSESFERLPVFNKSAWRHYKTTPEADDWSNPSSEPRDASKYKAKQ
T1 sequence (Q9P2K8 whole entry): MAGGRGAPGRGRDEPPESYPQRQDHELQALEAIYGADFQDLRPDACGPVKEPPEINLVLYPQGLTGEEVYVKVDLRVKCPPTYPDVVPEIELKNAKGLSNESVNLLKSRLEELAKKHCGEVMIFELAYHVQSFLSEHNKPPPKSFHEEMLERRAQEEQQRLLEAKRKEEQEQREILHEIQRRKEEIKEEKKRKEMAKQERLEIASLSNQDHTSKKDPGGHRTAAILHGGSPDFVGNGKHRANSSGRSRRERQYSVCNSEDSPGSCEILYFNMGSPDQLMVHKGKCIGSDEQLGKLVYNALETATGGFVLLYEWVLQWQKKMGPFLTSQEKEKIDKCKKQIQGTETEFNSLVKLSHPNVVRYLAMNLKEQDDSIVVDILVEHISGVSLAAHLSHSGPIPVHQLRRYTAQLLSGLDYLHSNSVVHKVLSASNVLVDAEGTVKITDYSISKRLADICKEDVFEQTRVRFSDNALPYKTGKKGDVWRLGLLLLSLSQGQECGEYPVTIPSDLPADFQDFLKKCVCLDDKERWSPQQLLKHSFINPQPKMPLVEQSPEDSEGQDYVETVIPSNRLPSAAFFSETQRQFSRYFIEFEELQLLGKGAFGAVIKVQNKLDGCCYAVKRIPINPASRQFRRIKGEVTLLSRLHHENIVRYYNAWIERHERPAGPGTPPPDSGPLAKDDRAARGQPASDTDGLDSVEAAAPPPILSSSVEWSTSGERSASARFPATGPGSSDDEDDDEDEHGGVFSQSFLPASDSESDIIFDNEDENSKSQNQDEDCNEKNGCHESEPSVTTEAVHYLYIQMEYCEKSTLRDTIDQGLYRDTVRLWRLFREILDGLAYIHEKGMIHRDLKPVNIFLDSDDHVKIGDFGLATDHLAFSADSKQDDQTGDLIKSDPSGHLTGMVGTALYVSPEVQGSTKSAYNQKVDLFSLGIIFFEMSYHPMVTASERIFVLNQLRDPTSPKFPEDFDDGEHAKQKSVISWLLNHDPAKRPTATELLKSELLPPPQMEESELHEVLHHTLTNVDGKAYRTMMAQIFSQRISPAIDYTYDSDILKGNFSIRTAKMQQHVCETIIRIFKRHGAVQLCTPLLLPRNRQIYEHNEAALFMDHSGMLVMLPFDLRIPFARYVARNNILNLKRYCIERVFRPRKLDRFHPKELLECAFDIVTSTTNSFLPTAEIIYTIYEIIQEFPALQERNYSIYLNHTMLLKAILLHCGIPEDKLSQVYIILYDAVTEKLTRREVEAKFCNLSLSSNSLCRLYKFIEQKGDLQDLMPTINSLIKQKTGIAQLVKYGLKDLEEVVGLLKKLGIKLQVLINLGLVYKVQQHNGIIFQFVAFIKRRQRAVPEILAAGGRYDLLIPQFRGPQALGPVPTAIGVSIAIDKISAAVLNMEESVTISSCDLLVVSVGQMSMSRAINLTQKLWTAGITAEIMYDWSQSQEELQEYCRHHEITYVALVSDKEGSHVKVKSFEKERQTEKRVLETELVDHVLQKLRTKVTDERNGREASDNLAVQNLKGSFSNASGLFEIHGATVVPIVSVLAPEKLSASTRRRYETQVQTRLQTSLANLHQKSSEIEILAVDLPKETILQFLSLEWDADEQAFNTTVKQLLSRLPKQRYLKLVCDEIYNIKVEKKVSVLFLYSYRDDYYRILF
T5 sequence (Q9BQI3 whole entry): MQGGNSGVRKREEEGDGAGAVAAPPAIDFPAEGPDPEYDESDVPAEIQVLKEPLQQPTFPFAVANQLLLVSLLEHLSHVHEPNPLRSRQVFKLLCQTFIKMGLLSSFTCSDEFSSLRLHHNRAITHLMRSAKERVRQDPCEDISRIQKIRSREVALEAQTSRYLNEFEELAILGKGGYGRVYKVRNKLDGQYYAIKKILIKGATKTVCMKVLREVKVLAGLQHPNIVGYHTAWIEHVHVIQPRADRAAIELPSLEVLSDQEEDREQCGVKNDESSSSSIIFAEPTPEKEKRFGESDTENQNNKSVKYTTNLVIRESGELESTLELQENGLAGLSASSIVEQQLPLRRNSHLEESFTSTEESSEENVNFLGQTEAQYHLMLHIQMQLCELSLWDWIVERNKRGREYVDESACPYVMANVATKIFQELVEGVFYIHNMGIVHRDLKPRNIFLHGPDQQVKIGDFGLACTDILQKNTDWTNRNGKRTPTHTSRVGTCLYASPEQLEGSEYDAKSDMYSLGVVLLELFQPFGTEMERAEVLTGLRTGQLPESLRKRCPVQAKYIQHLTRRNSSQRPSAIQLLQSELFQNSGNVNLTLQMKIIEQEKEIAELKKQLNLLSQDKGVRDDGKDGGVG

CO[C@@H]1[C@H](N(C)C(=O)CCC(=O)NCc2cn(CCCS(=O)(=O)[O-])nn2)C[C@H]2O[C@]1(C)n1c3ccccc3c3c4c(c5c6ccccc6n2c5c31)C(=O)NC4.[Na+] [CIMSS]
induction of apoptosis (SYTOX Green and anti-caspase staining) (HaCat cells [1]; 10 μM, 6 or 24 hours): did not induce apoptosis | PARP-1 or caspase 8 cleavage (HaCat cells [1]; 0.1, 1 or 10 μM, 8 hours): did not induce PARP-1 or caspase 8 cleavage | Recover %, MDCK Transport (MDCK-MDR1 cells): 96% | fold less effective than staurosporine (IC50), PKA (PKA): ~46 fold | IC50 (PKA; read-out: Compound IC50, PKA, in vitro kinase activity): 42.3 nM | percentage of GFP+ cells (HSV-1 K26GFP; 4 h post-temperature shift): significantly reduced | percentage of GFP+ cells (HSV-1 K26GFP; one hour post temperature shift): significantly decreased | remaining activity at 10 µM (panel of 393 kinases [2]; read-out: % Enzyme Activity (relative to DMSO controls) CIMSS (10 μM) Data 1, kinase EIF2AK4, Data 1): 9.5% | remaining activity at 10 µM (panel of 393 kinases [2]; read-out: % Enzyme Activity (relative to DMSO controls) CIMSS (10 μM) Data 2, kinase EIF2AK4, Data 2): 9.39% | remaining activity at 10 µM (panel of 393 kinases [3]; read-out: % Enzyme Activity (relative to DMSO controls) CIMSS (10 μM) Data 1, kinase AMPK (A2/B1/G3), Data 1): 0.67% | remaining activity at 10 µM (panel of 393 kinases [3]; read-out: % Enzyme Activity (relative to DMSO controls) CIMSS (10 μM) Data 1, kinase AMPK(A2/B1/G1), Data 1): 0.76% | remaining activity at 10 µM (panel of 393 kinases [3]; read-out: % Enzyme Activity (relative to DMSO controls) CIMSS (10 μM) Data 1, kinase AMPK(A2/B2/G1), Data 1): 0.34% | remaining activity at 10 µM (panel of 393 kinases [3]; read-out: % Enzyme Activity (relative to DMSO controls) CIMSS (10 μM) Data 1, kinase AMPK(A2/B2/G2), Data 1): 0.73% | remaining activity at 10 µM (panel of 393 kinases [3]; read-out: % Enzyme Activity (relative to DMSO controls) CIMSS (10 μM) Data 1, kinase AMPK(A2/B2/G3), Data 1): 0.63% | remaining activity at 10 µM (panel of 393 kinases [3]; read-out: % Enzyme Activity (relative to DMSO controls) CIMSS (10 μM) Data 2, kinase AMPK (A2/B1/G3), Data 2): 0.59% | remaining activity at 10 µM (panel of 393 kinases [3]; read-out: % Enzyme Activity (relative to DMSO controls) CIMSS (10 μM) Data 2, kinase AMPK(A2/B1/G1), Data 2): 0.64% | remaining activity at 10 µM (panel of 393 kinases [3]; read-out: % Enzyme Activity (relative to DMSO controls) CIMSS (10 μM) Data 2, kinase AMPK(A2/B2/G1), Data 2): 0.23% | remaining activity at 10 µM (panel of 393 kinases [3]; read-out: % Enzyme Activity (relative to DMSO controls) CIMSS (10 μM) Data 2, kinase AMPK(A2/B2/G2), Data 2): 0.63% | remaining activity at 10 µM (panel of 393 kinases [3]; read-out: % Enzyme Activity (relative to DMSO controls) CIMSS (10 μM) Data 2, kinase AMPK(A2/B2/G3), Data 2): 0.61% | remaining activity at 10 µM (panel of 393 kinases [4]; read-out: % Enzyme Activity (relative to DMSO controls) CIMSS (10 μM) Data 1, kinase DNA-PK, Data 1): 98.2% | remaining activity at 10 µM (panel of 393 kinases [4]; read-out: % Enzyme Activity (relative to DMSO controls) CIMSS (10 μM) Data 2, kinase DNA-PK, Data 2): 95.8% | remaining activity at 10 µM (panel of 393 kinases [5]; read-out: % Enzyme Activity (relative to DMSO controls) CIMSS (10 μM) Data 1, kinase PDK2/PDHK2, Data 1): 95.5% | remaining activity at 10 µM (panel of 393 kinases [5]; read-out: % Enzyme Activity (relative to DMSO controls) CIMSS (10 μM) Data 2, kinase PDK2/PDHK2, Data 2): 94% | remaining activity at 10 µM (panel of 393 kinases [6]; read-out: % Enzyme Activity (relative to DMSO controls) CIMSS (10 μM) Data 1, kinase EIF2AK1, Data 1): 82.5% | remaining activity at 10 µM (panel of 393 kinases [6]; read-out: % Enzyme Activity (relative to DMSO controls) CIMSS (10 μM) Data 2, kinase EIF2AK1, Data 2): 81.2% | remaining activity at 10 µM (panel of 393 kinases [7]; read-out: % Enzyme Activity (relative to DMSO controls) CIMSS (10 μM) Data 1, kinase TRPM7/CHAK1, Data 1): 91.6% | remaining activity at 10 µM (panel of 393 kinases [7]; read-out: % Enzyme Activity (relative to DMSO controls) CIMSS (10 μM) Data 2, kinase TRPM7/CHAK1, Data 2): 91.5% | remaining activity at 10 µM (panel of 393 kinases [8]; read-out: % Enzyme Activity (relative to DMSO controls) CIMSS (10 μM) Data 1, kinase PDK3/PDHK3, Data 1): 96.4% | remaining activity at 10 µM (panel of 393 kinases [8]; read-out: % Enzyme Activity (relative to DMSO controls) CIMSS (10 μM) Data 2, kinase PDK3/PDHK3, Data 2): 94.8% | cytotoxicity (HaCat cells [9]): little or no cytotoxicity | extended Ca2+ release (first hour pi) (intracellular Ca2+): significant reduction | initial Ca2+ transient (first three minutes following HSV exposure) (intracellular Ca2+): did not block
